Reference: patent US20240247298A1, “METHOD FOR DETECTING LIVE LACTIC ACID BACTERIA WITH CARBOHYDRATE METABOLISM ACTIVITY” (KABUSHIKI KAISHA YAKULT HONSHA, priority 2021, published 2024)

Legend:
Format in all cases: cell-based, Lacticaseibacillus paracasei YIT 9029
LcS [1] = experiment: cF excretion activity by addition of various saccharides of LcS (cFDA/PI double staining, flow cytometry); conditions: LcS from New Yakult suspended in 1% saccharide solution; cFDA 50 μM, PI 30 μM
Procedure: (§1) A beverage or food containing LcS (New Yakult: manufactured by Yakult Honsha Co., Ltd.) stored at about 4° C. within 16 days after production was diluted 10-fold with DPBS, then washed by centrifugation three times with DPBS, and the cell pellet was collected. The cell pellet obtained above was suspended in a 1% (V/W) solution in which a saccharide shown in Table 1 was dissolved in purified water. Further, the suspension was diluted with DPBS so that the cell concentration in the suspension was about 10^6 cells/mL, and cFDA was added thereto at a final concentration of 50 μM, and the resultant was left to stand at 30° C. for 15 minutes. Subsequently, propidium iodide was added thereto at a final concentration of 30 μM, and the resultant was left to stand at room temperature for 15 minutes, and then subjected to FACSAriaTM fusion (manufactured by Becton Dickinson) to measure the cF fluorescence intensity. A case where 90% or more of the total bacterial cells were counted as cF^- was determined to have cF excretion activity. In Table 1, those determined to have cF excretion activity are indicated by +, and those determined to have no cF excretion activity are indicated by -. The assimilation of a saccharide was examined using AP[…] (manufactured by bioMérieux Japan Co., Ltd.), which is a kit for identifying bacteria. A saccharide that can be assimilated by LcS is indicated by +, and a saccharide that cannot be assimilated by LCS is indicated by -.

LcS [2] = experiment: Time course of cF accumulation and cF excretion of LcS
Procedure: A cultured bacterial solution of LcS in MRS medium was washed by centrifugation with Dulbecco's PBS (DPBS: manufactured by Thermo Fisher Scientific, Inc.), thereby removing saccharides. CFDA was added to the DPBS suspension of LcS obtained above at a final concentration of 50 μM (t=0), and cF accumulation from 0 to 20 minutes thereafter was examined by Gallios. In addition, to the DPBS suspension of LcS obtained above, CFDA was added at a final concentration of 50 μM, and the resultant was left to stand at 30° C. for 30 minutes to allow cF to accumulate in the bacterial cells. Subsequently, glucose was added at a final concentration of 10 mM (t=0), and cF excretion in 15 minutes thereafter was examined. Further, to the DPBS suspension of LcS obtained above, CFDA was added at a final concentration of 50 μM, and the resultant was left to stand at 30° C. for 30 minutes to allow cF to accumulate in the bacterial cells. Subsequently, glucose was added at a final concentration of 0.001 mM, 0.01 mM, 0.1 mM, or 1 mM (t=0), and cF excretion in 15 minutes thereafter was examined.

LcS [3] = experiment: Assimilation of a saccharide examined using API50cH; parameters: key: A saccharide that can be assimilated by LcS is indicated by +; a saccharide that cannot be assimilated by LCS is indicated by −; conditions: assimilation by LcS, API50cH kit
Procedure: as §1, with “The” for “A beverage or food containing LcS (New Yakult: manufactured by Yakult Honsha Co., Ltd.) stored at about 4° C. within 16 days after production was diluted 10-fold with DPBS, then washed by centrifugation three times with DPBS, and the cell pellet was collected. The”

With O=CC[C@@H](O)[C@@H](O)[C@H](O)CO [2-deoxy-D-galactose] the cF excretion activity (LcS [1]) was “− (those determined to have no cF excretion activity are indicated by −)”.

With carboxyfluorescein diacetate [cFDA] the “time after which cF accumulation amount was almost saturated” value (LcS [2]; cFDA 50 μM, no sugar, DPBS suspension of LcS) was 20 min.

OC[C@H]1O[C@@H](O[C@H]2[C@H](O)[C@@H](O)C(O)O[C@@H]2CO)[C@H](O)[C@@H](O)[C@H]1O (stereo partly shown) [Lactose] was tested, and the cF excretion activity (LcS [1]) was “− (those determined to have no cF excretion activity are indicated by −)” and the Assimilability (LcS [3]) was “+”.

O=CC[C@@H](O)[C@H](O)[C@H](O)CO [2-deoxy-D-glucose] was tested, and the cF excretion activity (LcS [1]) was “− (those determined to have no cF excretion activity are indicated by −)”.

In the case of O=C(CO)[C@@H](O)[C@H](O)[C@@H](O)CO [L-sorbose], the cF excretion activity (LcS [1]) is reported as “− (those determined to have no cF excretion activity are indicated by −)” and the Assimilability (LcS [3]) is reported as “+”.

O=C[C@H](O)[C@@H](O)[C@H](O)[C@H](O)CO [D-glucose] was tested, and the cF excretion activity (LcS [1]) was “+ (A case where 90% or more of the total bacterial cells were counted as cF^− was determined to have cF excretion activity)”, the Assimilability (LcS [3]) was “+” and the cF excretion (LcS [2]; glucose final concentration 0.001 mM) was “significant delay in excretion”. For the same compound, the cF excretion (LcS [2]; glucose final concentration 0.01 mM) was “slight delay in excretion” and the “time after which cF began to be rapidly excreted” value (LcS [2]; glucose final concentration 10 mM, LcS with cF accumulated in advance) was “about 3 minutes”.

With OC[C@H]1O[C@@](CO)(O[C@H]2O[C@H](CO)[C@@H](O)[C@H](O)[C@H]2O)[C@@H](O)[C@@H]1O [sucrose] the cF excretion activity (LcS [1]) was “− (those determined to have no cF excretion activity are indicated by −)” and the Assimilability (LcS [3]) was “+”.

C[C@H](O)[C@H](O)[C@@H](O)[C@@H](O)C=O [L-rhamnose] was tested, and the cF excretion activity (LcS [1]) was “− (those determined to have no cF excretion activity are indicated by −)” and the Assimilability (LcS [3]) was “−”.

O=C[C@H](O)[C@@H](O)[C@@H](O)[C@H](O)CO [D-galactose] was tested, and the cF excretion activity (LcS [1]) was “+ (A case where 90% or more of the total bacterial cells were counted as cF^− was determined to have cF excretion activity)” and the Assimilability (LcS [3]) was “+”.

In the case of O=C[C@@H](O)[C@@H](O)[C@H](O)[C@H](O)CO [D-mannose], the cF excretion activity (LcS [1]) is reported as “+ (A case where 90% or more of the total bacterial cells were counted as cF^− was determined to have cF excretion activity)” and the Assimilability (LcS [3]) is reported as “+”.

O=C[C@H](O)[C@@H](O)[C@@H](O)CO [L-arabinose] was tested, and the cF excretion activity (LcS [1]) was “− (those determined to have no cF excretion activity are indicated by −)” and the Assimilability (LcS [3]) was “−”.
